Reference: patent US10272056B2, “Treatment for mitochondrial diseases” (The George Washington University a Congressionally …, priority 2015, dated 2019)

Key:
PC12-ND6 cells [1] = assay: NaBt dose-dependent acetylation of nuclear proteins (anti-acetylated Lys immunocytochemistry); assay type: cell-based; conditions: three days, 2, 5 and 10 mM tested
Source text: FIG. 4A-4E are images from microscopy and graphs showing NaBt dose-dependent acetylation and cellular toxicity in PC12-ND6 cells and embryonic E17.5 hippocampal neurons. (A) Confocal micrographs of PC12-ND6 cells (referred to as ND6) grown in the absence or presence of NaBt for three days and labeled with an anti-acetylated Lys antibody (AcLys; green). Scale bar represents 10 μm. […] Results are expressed as relative fluorescence intensity±S.D. (n=250 cells per NaBt concentration; * p=0.0001). (C) Effect of NaBt on PC12-ND6 cell viability. […] Mean±SEM (n=250 cells for each experimental condition; * p=0.0001). (D) Confocal micrographs of NaBt dose-dependent acetylation in E17.5 hippocampal neurons (AcLys; green). Scale bar represents 10 μm.
Sodium butyrate increases protein acetylation in a dose-dependent manner without inducing cellular toxicity. A dose response analysis was performed to determine the optimal concentration of sodium butyrate (NaBt) for inducing maximal acetylation levels with minimal cellular toxicity. PC12-ND6 cells were treated with different concentrations of NaBt (2 mM, 5 mM, and 10 mM) for three days before assessing the degree of acetylated lysine residues by immunocytochemistry and cell viability by live-cell confocal microscopy using the Nuclear-ID™ stain.

neuronal cells [2] = assay: Mitochondrial membrane potential (TMRM dye, confocal microscopy and flow cytometry); assay type: cell-based; conditions: NaBt-treated cells
Experimental: (§1) FIG. 9A-9C are graphs and images from microscopy showing that NaBt enhances mitochondrial bioenergetics. (A) Flow cytometric analysis of Δψm; *p<0.001. (B) ATP levels in live cells using a Mg^2+-based assay; *p<0.001. (C) Electron microscopy of mitochondria in control and NaBt-treated cells; scale bar=200 nm.
(§2) NaBt increases mitochondrial membrane potential (Δψm) and ATP levels. The MTR-based data raised the question: could NaBt also enhance mitochondrial bioenergetics? Δψm was assessed by live cell confocal microscopy and flow cytometry using the TMRM dye, which accumulates in the mitochondrial matrix in a Δψm-dependent fashion. A 1.5-fold increase in Δψm in NaBt-treated cells was observed (FIG. 9A). To test whether enhanced Δψm led to increased ATP output, ATP levels were monitored using the live cell Mg^2+-based ATP assay, which is compatible with the TMRM dye, allowing simultaneous recordings. A 1.6-fold increase in ATP levels in NaBt-treated cells was observed (FIG. 9B), in line with the MTR- and TMRM-based findings and the elongated mitochondrial morphology.

neuronal cells [3] = assay: Live cell Mg2+-based ATP assay; conditions: NaBt-treated cells
Experimental: as §1, §2

neuronal cells [4] = assay: Electron microscopy of mitochondria; assay type: cell-based; conditions: NaBt-treated vs control cells
Experimental: as §1, §2

PC12-ND6 cells [5] = assay: Neurite outgrowth with sub-optimal NGF (10 ng/ml); assay type: cell-based
Experimental: FIG. 13A-13E are images from microscopy and graphs showing that the timing of NaBt treatment is critical for enhancing neuronal differentiation of PC12-ND6 cells upon sub-optimal neurotrophic cues. (A) Confocal micrographs of PC12-ND6 cells treated with dbcAMP alone or with NaBt (5 mM) in a simultaneous or sequential manner. Scale bar represents 5 μm. (B) Graph of neurite length. Mean±SEM (n=50 for each condition; compared to control (no NaBt) *p=0.0001 and **p=0.0009). (C) Confocal micrographs of PC12-ND6 cells treated with sub-optimal NGF concentration (10 ng/ml) alone or first NaBt (5 mM) in a simultaneous or sequential manner. Scale bar represents 10 μm. (D) Graph of average total neurite length. Mean±SEM (n=50 for each condition; compared to control *p=0.0001). (E) Graph of the frequency of total neurite length below and above 90 μm.
NaBt-mediated modulation of the neuronal potential of PC12-ND6 cells in the context of sub-optimal NGF concentration (10 ng/ml) was further investigated. Transfected PC12-ND6 cells were first treated with NaBt (5 mM) for three days prior to NGF exposure (10 ng/ml). A time course analysis of neurite outgrowth was conducted during the first two days of NGF exposure by live-cell confocal microscopy. […] Such trend of neurite extension was maintained at day 2 of NGF exposure with NaBt-pre-treated or co-treated PC12-ND6 cells. Whether NaBt added concomitantly with NGF (10 ng/ml) could mediate increased neuritogenesis was also assessed.

PC12-ND6 cells [6] = assay: Mitochondrial mass under chloramphenicol (mito-GFP live-cell confocal microscopy); assay type: cell-based; conditions: NaBt prior to chloramphenicol, up to highest concentration
Source text: FIG. 14A-14E are images from microscopy showing that pre-treatment of PC12-ND6 cells with NaBt prevents chloramphenicol-mediated decrease of mitochondrial mass. (A) Graph of PC12-ND6 cell death upon exposure to different concentrations of chloramphenicol (Cm). Percent of cell death±SEM (n=250 cells). (B) Quantitative immunoblot analysis of mitochondrial-encoded MT-CO1 protein (green) and nuclear-encoded SDH-A protein (red) in Cm-treated PC12-ND6 cells. (C) Graph of MT-CO1/SDH-A ratio normalized to untreated PC12-ND6 cells. Mean±SEM (n=3; compared to untreated cells *p=0.0052, **p=0.0048, and ***p=0.0034). (D) Confocal micrographs of untreated and Cm-treated PC12-ND6 cells transfected with the vector mito-GFP. Scale bar represents 5 μm. (E) Confocal micrographs of NaBt pre-treated PC12-ND6 cells transfected with the vector mito-GFP and exposed to Cm. Scale bar represents 5 μm.
The efficacy of chloramphenicol treatment was determined by simultaneously examining the expression levels of the nuclear-encoded succinate dehydrogenase (SDH-A) subunit of Complex II and the mitochondrial-encoded subunit I of Complex IV (MT-COI) using a quantitative immunoblot approach. […] The effect of chloramphenicol on mitochondrial mass by live-cell confocal microscopy using PC12-ND6 cells transfected with the vector mito-GFP was confirmed.

MELAS fibroblasts = assay: Morphometric analysis of mitochondrial connectivity (Image J); assay type: cell-based, human; conditions: Image J analysis of MTG-labeled fibroblasts
Experimental: FIG. 18 is a graph showing that butyrate and its derivatives rescue the mitochondrial dynamics and connectivity in MELAS fibroblasts.
Butyrates rescue the mitochondrial mass, morphology, networking, and membrane potential in MELAS fibroblasts. Skin fibroblasts from two MELAS patients and from a healthy subject as a control were used. Dose-dependent analyses of butyrates was performed to determine their best concentrations for eliciting an optimal mitochondrial response without cellular toxicity. Healthy and MELAS fibroblasts were treated with PBS, NaBt (2.5 mM), TBN (1.5 mM), or AN9 (300 μM) for three days before labeling with the MTG dye for live cell confocal analysis.

In the case of CCCC(=O)[O-].[Na+] [NaBt, sodium butyrate], the “NaBt concentration showing maximal acetylation levels of nuclear proteins” value (PC12-ND6 cells [1]) is reported as 5 mM, the “increase in Δψm” value (neuronal cells [2]) is reported as 1.5 fold and the “increase in ATP levels” value (neuronal cells [3]) is reported as 1.6 fold. For the same compound, the mitochondrial micro-architecture (neuronal cells [4]) was “increased numbers of elongated cristae”, the “neurite outgrowth, NaBt and NGF administered simultaneously” value (PC12-ND6 cells [5]; NGF 10 ng/ml) was “No synergistic effect” and the “average total neurite length” value (PC12-ND6 cells [5]; NaBt 5 mM three days pre-treatment, 24 hours NGF 10 ng/ml, control 60 μm) was 168 μm. The “percent of neurites longer than 90 μm” value (PC12-ND6 cells [5]; NaBt pre-treated, NGF 10 ng/ml, control 16%) was 79%, the “mitochondrial biomass with NaBt pre-treatment” value (PC12-ND6 cells [6]) was “sustain their mitochondrial biomass” and the connectivity among mitochondria (MELAS fibroblasts) was “rescue the connectivity among mitochondria”.
